# How the values were obtained:
# [1] = test system: HEK293T cells; assay: WST-8 Cell Proliferation Assay (dehydrogenase activity, cell growth); type: cell-based; conditions: 100 μg/mL, HEK293T cells of Example 1; compared to positive and negative control; FIG. 2
# Procedure: For the pyrroloquinoline quinone disodium salt-added group in Example 1, WST-8 Cell Proliferation Assay Kit (Cayman Chemical Company) was used to confirm the cell growth after addition of pyrroloquinoline quinone disodium salt. The measurement was performed by a method according to an attached protocol. The dehydrogenase activity is known to be in proportion to the number of live cells. The kit utilizes this principle and measures the dehydrogenase activity released in the medium from the cells.
# [2] = target: Orexin 2 Receptor (Homo sapiens, UniProt O43614); conditions: 100 μg/mL test substance, 1 h pre-incubation, then 50 nM orexin-A for 24 hours; HEK293T cells; n=3; FIG. 1
# Sequence of Orexin 2 Receptor (O43614 whole entry): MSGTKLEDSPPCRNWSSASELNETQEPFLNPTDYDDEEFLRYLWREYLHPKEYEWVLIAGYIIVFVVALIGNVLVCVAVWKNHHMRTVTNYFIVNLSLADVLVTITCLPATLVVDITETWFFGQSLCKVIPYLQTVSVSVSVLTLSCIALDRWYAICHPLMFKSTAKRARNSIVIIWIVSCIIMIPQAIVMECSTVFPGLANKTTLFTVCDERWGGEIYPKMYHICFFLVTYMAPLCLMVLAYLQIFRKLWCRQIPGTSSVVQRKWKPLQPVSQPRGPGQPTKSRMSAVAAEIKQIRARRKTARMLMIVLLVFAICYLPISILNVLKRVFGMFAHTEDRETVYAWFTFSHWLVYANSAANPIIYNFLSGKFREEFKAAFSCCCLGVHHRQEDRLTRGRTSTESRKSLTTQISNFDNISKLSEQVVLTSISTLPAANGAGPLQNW
# Procedure: The orexin receptor antagonist activity of a test substance was measured using an accessory to Orexin 2 Receptor Reporter Assay Kit (Cayman Chemical Company).
# In this evaluation system, cells that express orexin receptors at cell surfaces are used. Binding of the agonist (orexin) to the orexin receptor causes secretion of secreted alkaline phosphatase (SEAP). Secreted SEAP is reacted with an alkaline phosphatase substrate, and the enzyme activity of SEAP is measured using a luminometer. A substance having orexin receptor antagonist action reduces the enzyme activity.
# (1) HEK293T cells were prepared at a concentration of 2.5×10^5 cells/mL using Dulbecco's modified Eagle medium (high glucose content) (Dulbecco's Modified Eagle's Medium-high glucose, with 4500 mg/L glucose, L-glutamine, sodium pyruvate, and sodium bicarbonate, liquid, sterile-filtered, suitable for cell culture) (Sigma-Aldrich) to which fetal bovine serum (FBS) was added to a final concentration of 10%.
# (2) The medium containing HEK293T cells prepared in (1) was seeded at 200 μL per well in Orexin 2 Receptor Reverse Transfection Strip Plate.
# (3) Incubation was performed at 5% CO2 and 37° C. for 16 hours. […]
# (7) The enzyme (SEAP) activity of the supernatant was measured in accordance with a protocol attached to Orexin 2 Receptor Reporter Assay Kit (Cayman Chemical Company). […]
# [3] = test system: orexin receptor; conditions: intake of suvorexant; cited from earlier work
# [4] = test system: orexin receptor; conditions: during glucose tolerance test; cited from earlier work
# [5] = test system: orexin receptor; conditions: injection; amyloid precursor protein transgenic mice; cited from earlier work
compound,measurement,setting,value
O=C(O)c1cc(C(=O)O)c2c(n1)C(=O)C(=O)c1cc(C(=O)O)[nH]c1-2.[Na].[Na] [pyrroloquinoline quinone disodium salt],number of cells (dehydrogenase activity relative to negative control),[1],did not show a decrease in the number of cells
same,orexin receptor antagonist action (SEAP enzyme activity relative to negative control),[2],orexin receptor antagonist action equivalent to that exerted by addition of 1 μM suvorexant
Cc1ccc(-n2nccn2)c(C(=O)N2CCN(c3nc4cc(Cl)ccc4o3)CC[C@H]2C)c1 [suvorexant],"sleep latency, wake after sleep onset, total sleep duration, sleep efficiency",[3],decreased sleep latency and objective wake after sleep onset and have increased total sleep duration and sleep efficiency
same,rise in blood sugar levels,[4],suppressing the rise in blood sugar levels
CNC(=O)[C@@H](c1ccccc1)N1CCc2cc(OC)c(OC)cc2[C@@H]1CCc1ccc(C(F)(F)F)cc1 [almorexant],amyloid β level and amyloid plaque formation,[5],decrease in amyloid β level and in amyloid plaque formation

# Reference: patent US20220088004A1, “COMPOSITION FOR COMPETITIVE INHIBITION OF OREXIN RECEPTORS” (SUNTORY HOLDINGS LIMITED, priority 2019, published 2022)
